Test results taken from ChEMBL document CHEMBL1152563, “Identification of new agonists of urotensin-II from a cyclic peptide library” (Bioorg Med Chem, 2009).
Peptide text beside a SMILES is read from it.

Assays:
Urotensin-2 receptor = biological target: T1, Urotensin-2 receptor (Homo sapiens, UniProt Q9UKP6); assay: Agonist activity at human GPR14 expressed in HEK293 cells by calcium mobilization assay; type: functional, cell-based
T1 sequence (Q9UKP6 whole entry): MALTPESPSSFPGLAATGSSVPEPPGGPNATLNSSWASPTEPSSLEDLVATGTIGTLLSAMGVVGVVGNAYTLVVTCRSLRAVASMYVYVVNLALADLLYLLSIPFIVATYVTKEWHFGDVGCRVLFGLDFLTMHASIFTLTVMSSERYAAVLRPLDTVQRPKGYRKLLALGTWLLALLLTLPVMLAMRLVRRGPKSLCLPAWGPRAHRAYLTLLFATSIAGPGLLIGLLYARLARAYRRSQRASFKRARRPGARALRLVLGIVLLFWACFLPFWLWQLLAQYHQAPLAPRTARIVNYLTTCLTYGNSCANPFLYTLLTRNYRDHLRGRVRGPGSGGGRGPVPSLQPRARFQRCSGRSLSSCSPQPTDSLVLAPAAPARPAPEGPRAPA

[1] = biological target: T2, Urotensin-2 receptor (Homo sapiens) (UniProt Q9UKP6); assay: Agonist activity at human GPR14 expressed in HEK293 cells by calcium mobilization assay relative to urotensin 2; type: functional, cell-based
T2 sequence (whole entry): T1 sequence (Q9UKP6 whole entry)

EC50 (Urotensin-2 receptor) [nM]	Emax [1] [%]	SMILES
13.2	101	NCCCC[C@@H]1NC(=O)[C@H](Cc2c[nH]c3ccccc23)NC(=O)[C@H](Cc2ccccc2)NC(=O)CNC(=O)[C@@H]2CCCN2C(=O)[C@H](Cc2ccccc2)NC1=O (cyclo(FPGFWK))
10.1	96	NCCCC[C@@H]1NC(=O)[C@H](Cc2c[nH]c3ccccc23)NC(=O)[C@H](CO)NC(=O)CNC(=O)[C@@H]2CCCN2C(=O)[C@H](Cc2ccccc2)NC1=O (cyclo(FPGSWK))
75.7	102	NCCCC[C@@H]1NC(=O)[C@H](Cc2c[nH]c3ccccc23)NC(=O)[C@H](Cc2ccc(O)cc2)NC(=O)CNC(=O)[C@@H]2CCCN2C(=O)[C@H](Cc2ccccc2)NC1=O (cyclo(FPGYWK))
20.6	92	NCCCC[C@@H]1NC(=O)[C@H](Cc2c[nH]c3ccccc23)NC(=O)[C@H](Cc2ccccc2)NC(=O)CNC(=O)[C@@H]2CCCN2C(=O)[C@H](Cc2c[nH]c3ccccc23)NC1=O (cyclo(FWKWPG))
6.94	98	NCCCC[C@@H]1NC(=O)[C@H](Cc2c[nH]c3ccccc23)NC(=O)[C@H](Cc2ccccc2)NC(=O)CNC(=O)[C@@H]2CCCN2C(=O)[C@H](Cc2ccc(O)cc2)NC1=O (cyclo(FWKYPG))
16.7	100	NCCCC[C@@H]1NC(=O)[C@H](Cc2c[nH]c3ccccc23)NC(=O)[C@H](CO)NC(=O)CNC(=O)[C@@H]2CCCN2C(=O)[C@H](Cc2c[nH]c3ccccc23)NC1=O (cyclo(GSWKWP))
8.51	108	NCCCC[C@@H]1NC(=O)[C@H](Cc2c[nH]c3ccccc23)NC(=O)[C@H](CO)NC(=O)CNC(=O)[C@@H]2CCCN2C(=O)[C@H](Cc2ccc(O)cc2)NC1=O (cyclo(GSWKYP))
12.6	86	NCCCC[C@@H]1NC(=O)[C@H](Cc2c[nH]c3ccccc23)NC(=O)[C@H](Cc2ccc(O)cc2)NC(=O)CNC(=O)[C@@H]2CCCN2C(=O)[C@H](Cc2ccc(O)cc2)NC1=O (cyclo(GYWKYP))
